US11110105B2, “Compounds, composition and uses thereof for treating cancer” (INSTITUT GUSTAVE ROUSSY, priority 2017, dated 2021)

Assays:
[1] = tested on: H2-K^b molecules at the cell surface of MCA205 cells; assay: Flow cytometry of H2-K^b expression, MCA205; format: cell-based, mouse
Description: Flow cytometry analyses of H2-K^b expression on MCA205 and B16F10 cells treated with (A) isoginkgetin. Flow cytometry analyses of transiently expressed H2-K^b expression on A375, A549 and MRC5 cells treated with (B) isoginkgetin.

[2] = tested on: MCA205 mouse sarcoma cell line; assay: MTT assay on MCA205 cell line; format: cell-based; details: MCA205 WT cells, 15 μM or 35 μM
Experimental: RNA was extracted and qRT-PCR was performed with primers amplifying the unspliced (intron) and the spliced (exon) globin-SL8-intron RNA. Data are given as mean ±SEM of the ratio of 2^−ΔΔCt intron and 2^−ΔΔCt exon of at least three independent experiments. […] Data are express as mean ±SEM of the percentage of viable cells compared to the control condition of at least three independent experiments. *P<0.05, **P<0.01, ***P<0.001 (unpaired student t test).
MCA205 mouse sarcoma cell line is cultured at 37° C. under 5% CO2 in RPMI 1640 medium (Life Technologies) in the presence of 1% glutamine, 1% sodium pyruvate, 1% non-essential amino-acids, 1% penicillin/streptomycin and 10% FBS (Life Technologies) under standard conditions. B16F10 mouse melanoma cell line, MRC5 human fibroblast cell line and A375 human melanoma cell line are cultured at 37° C. under 5% CO2 in DMEM medium (Life Technologies) containing 1% glutamine, 1% penicillin/streptomycin and 10% FCS under standard conditions. A549 human lung carcinoma cell line is cultured at 37° C. under 5% CO2 in DMEM/F12+Glutamax I in the presence of 1% Hepes, 1% sodium pyruvate and 10% FBS under standard conditions. Stable MCA205-Globin-SL8-intron cell line are cultured under the same condition as MCA205 cell line with additional 2 mg/ml G418 (geneticin from Life Technologies) for selection. Stable B16F10-Globin-SL8-intron cell line are cultured under the same condition as B16F10 cell line with additional 2 mg/ml G418 (geneticin from Life Technologies) for selection. The SL8/Kb-specific (B3Z) T-cell reporter hybridoma are cultured at 37° C. under 5% CO2 in RPMI 1640 medium (Life Technologies) in the presence of 1% glutamine, 0.1% β-galactosidase, 1% penicillin/streptomycin and 10% FCS under standard conditions.
(§1) MTT assay on MCA205 and B16F10 cell lines treated with 6.25 μM, 15 μM or 25 μM of isoginkgetin. Dare are given as the mean of the percentage of cell viability ±SEM from at least three independent experiments.

[3] = MTT viability, human cells (text summary of table 1); format: cell-based; details: concentrations used (2.5 and 6.25 μM), A375, A549, MRC5, read-out: viability of human cells upon treatment
Description: Cancer cells display different intracellular mechanisms that can shape the pool and the quantity of peptides presented on MHC class I (MHC-I) molecules at their surface, leading to reduction of their antigenicity and escape of T-cell recognition. Inventors have shown that PTPs are a major source of peptides for the endogenous MHC-I pathway in vitro. In addition, they have provided the first proof of the positive impact of splicing inhibition on PTPs-dependent antigen presentation by treating HEK cells with the splicing inhibitor isoginkgetin. The latter has been reported to inhibit the spliceosome during the early stages of its assembly. In view to improve antigenicity and immune recognition of cancer cell lines, inventors determined whether isoginkgetin was able to modulate positively the expression and the presentation of tumor associated PTPs-derived antigens (TA-PTPs) at cancer cells surface. For that purpose, the human melanoma cell line A375, the human lung cancer cell line A549 and the normal human fibroblast lung cell line MRC5 were transiently expressing the MHC-I H2-K^b molecule and the PTPs-SL8 epitope from an intron within the β-Globin gene construct (Globin-SL8-intron) and treated with different concentrations of isoginkgetin for 18 h. […]

[4] = tested on: B16F10 WT tumors; assay: Tumor challenge, B16F10 WT in immunodeficient Nu/Nu nude mice; format: in vivo, mouse; details: 18 mg/kg intraperitoneally, days 5, 10 and 15
Experimental: (A) Experimental settings. Growth of (B) sarcoma MCA205 or (C) melanoma B16F10 cells that both stably express the globin-SL8-intron construct or (D) MCA205 Wild Type (WT) or (E) B16F10 WT cells that were subcutaneously inoculated on the flank of immunocompetent C57BL/6 mice injected intraperitoneally with 12 mg/kg or 18 mg/kg of isoginkgetin at days 5, 10 and 15 after inoculation. Tumor size was assessed every 3 to 4 days until reaching the established ethical endpoints. Each line represents the tumor size in area (mm^2) of 6 mice in each group. Size in area (mm^2) of (F) MCA205 globin-SL8-intron, (G) B16F10 globin-SL8-intron, (H) MCA205 WT or (I) B16F10 WT tumors subcutaneously inoculated on the flank of immunodeficient Nu/Nu Nude mice injected intraperitoneally with 18 mg/kg of isoginkgetin at days 5, 10 and 15 after inoculation. Data are presented at the day before the endpoints are reached.
Each line represents the tumor size in area (mm^2) of at least 6 mice in each group. The C right panel represents the tumor size at day 27. […]
Inventors then assessed the requirement of the immune response for isoginkgetin to reduce tumor growth Immunodeficient Nu/Nu nude mice were inoculated subcutaneously with either MCA205 or B16F10 cells that stably express the Globin-intron-SL8 or WT, and were treated with the same settings as previously described (FIG. 9A). […]

[5] = MTT viability, mouse cell lines (text summary of table 2); format: cell-based; details: MCA205 sarcoma and B16F10 melanoma cells, MCA205 and B16F10, 6.25-25 μM, read-out: cell viability at efficient doses
Experimental: In parallel, the same experiment was performed on the mouse melanoma B16F10 and sarcoma MCA205 cell lines that were transiently expressing the Globin-SL8-intron construct. […] Efficient doses lead to cell viability over 50% in these cell lines (table 2).
as §1

[6] = MTT assay on A549 cell line; format: cell-based; details: human, A549 lung carcinoma cells, read-out: % cell viability (±SEM)
Experimental: MCA205 mouse sarcoma cell line is cultured at 37° C. under 5% CO2 in RPMI 1640 medium (Life Technologies) in the presence of 1% glutamine, 1% sodium pyruvate, 1% non-essential amino-acids, 1% penicillin/streptomycin and 10% FBS (Life Technologies) under standard conditions. B16F10 mouse melanoma cell line, MRC5 human fibroblast cell line and A375 human melanoma cell line are cultured at 37° C. under 5% CO2 in DMEM medium (Life Technologies) containing 1% glutamine, 1% penicillin/streptomycin and 10% FCS under standard conditions. A549 human lung carcinoma cell line is cultured at 37° C. under 5% CO2 in DMEM/F12+Glutamax I in the presence of 1% Hepes, 1% sodium pyruvate and 10% FBS under standard conditions. Stable MCA205-Globin-SL8-intron cell line are cultured under the same condition as MCA205 cell line with additional 2 mg/ml G418 (geneticin from Life Technologies) for selection. Stable B16F10-Globin-SL8-intron cell line are cultured under the same condition as B16F10 cell line with additional 2 mg/ml G418 (geneticin from Life Technologies) for selection. The SL8/Kb-specific (B3Z) T-cell reporter hybridoma are cultured at 37° C. under 5% CO2 in RPMI 1640 medium (Life Technologies) in the presence of 1% glutamine, 0.1% β-galactosidase, 1% penicillin/streptomycin and 10% FCS under standard conditions. […]

| Structure (SMILES) | expression of the H2-K^b molecules at the cell surface [1] | toxicity (MTT, percentage of viable cells compared to control) [2] | viability [3] [%] | tumor growth [4] | viability [5] [%] | viability at 2.5 µM ([6]; A549, 2.5 μM) [%] | viability at 6.25 µM ([6]; A549, 6.25 μM) [%] |
| --- | --- | --- | --- | --- | --- | --- | --- |
| COc1ccc(-c2cc(=O)c3c(OC)cc(OP(=O)([O-])[O-])c(-c4cc(-c5cc(=O)c6c(OC)cc(OP(=O)([O-])[O-])cc6o5)ccc4OC)c3o2)cc1.[Na+].[Na+].[Na+].[Na+] [IM2P2] | is not affected | no toxicity |  |  |  |  |  |
| COc1ccc(-c2cc(=O)c3c(O)cc(O)c(-c4cc(-c5cc(=O)c6c(O)cc(O)cc6o5)ccc4OC)c3o2)cc1 [Isoginkgetin, isoginkgetin] |  |  | > 80 | No effect | > 50 | 100 | 84 |
